In test [1] the target is Tyrosine-protein kinase JAK2 (Homo sapiens) (UniProt O60674). Particulars: at 10 µM.
Description: Inhibition of JAK2 (unknown origin) at 10 uM
Test [2] addresses T1, Tyrosine-protein kinase JAK3 (Homo sapiens) (UniProt P52333).
T1 sequence (whole entry): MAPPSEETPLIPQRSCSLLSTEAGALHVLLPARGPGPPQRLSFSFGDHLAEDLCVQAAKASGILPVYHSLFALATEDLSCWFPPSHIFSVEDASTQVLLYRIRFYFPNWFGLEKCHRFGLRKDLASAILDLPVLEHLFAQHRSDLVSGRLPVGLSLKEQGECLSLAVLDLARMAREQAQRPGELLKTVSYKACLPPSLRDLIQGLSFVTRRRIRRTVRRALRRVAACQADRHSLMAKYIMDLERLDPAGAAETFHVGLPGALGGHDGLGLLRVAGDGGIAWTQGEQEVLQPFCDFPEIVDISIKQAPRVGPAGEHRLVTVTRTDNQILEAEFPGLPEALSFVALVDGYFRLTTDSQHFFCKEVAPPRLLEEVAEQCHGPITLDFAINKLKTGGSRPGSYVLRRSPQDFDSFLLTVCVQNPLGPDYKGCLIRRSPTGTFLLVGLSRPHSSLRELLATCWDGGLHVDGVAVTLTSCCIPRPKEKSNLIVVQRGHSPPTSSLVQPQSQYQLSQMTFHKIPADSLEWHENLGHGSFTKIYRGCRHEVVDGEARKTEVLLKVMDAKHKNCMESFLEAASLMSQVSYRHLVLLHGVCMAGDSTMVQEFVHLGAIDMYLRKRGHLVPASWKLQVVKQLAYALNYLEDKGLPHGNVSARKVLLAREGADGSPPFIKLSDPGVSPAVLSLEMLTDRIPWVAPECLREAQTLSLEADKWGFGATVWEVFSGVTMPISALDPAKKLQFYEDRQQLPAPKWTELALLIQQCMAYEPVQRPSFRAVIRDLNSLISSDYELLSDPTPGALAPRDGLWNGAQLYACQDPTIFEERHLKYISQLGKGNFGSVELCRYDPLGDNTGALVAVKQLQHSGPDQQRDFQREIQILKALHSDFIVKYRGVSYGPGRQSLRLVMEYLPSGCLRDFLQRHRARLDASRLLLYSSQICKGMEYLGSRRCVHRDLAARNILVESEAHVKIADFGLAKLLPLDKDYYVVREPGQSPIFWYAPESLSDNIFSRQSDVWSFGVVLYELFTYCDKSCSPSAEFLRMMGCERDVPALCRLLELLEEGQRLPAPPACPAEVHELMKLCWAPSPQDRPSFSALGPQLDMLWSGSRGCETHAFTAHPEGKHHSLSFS
Particulars: at 10 µM.
Description: Inhibition of JAK3 (unknown origin) at 10 uM

Tyrosine-protein kinase JAK2 (Homo sapiens), sequence (O60674 whole entry): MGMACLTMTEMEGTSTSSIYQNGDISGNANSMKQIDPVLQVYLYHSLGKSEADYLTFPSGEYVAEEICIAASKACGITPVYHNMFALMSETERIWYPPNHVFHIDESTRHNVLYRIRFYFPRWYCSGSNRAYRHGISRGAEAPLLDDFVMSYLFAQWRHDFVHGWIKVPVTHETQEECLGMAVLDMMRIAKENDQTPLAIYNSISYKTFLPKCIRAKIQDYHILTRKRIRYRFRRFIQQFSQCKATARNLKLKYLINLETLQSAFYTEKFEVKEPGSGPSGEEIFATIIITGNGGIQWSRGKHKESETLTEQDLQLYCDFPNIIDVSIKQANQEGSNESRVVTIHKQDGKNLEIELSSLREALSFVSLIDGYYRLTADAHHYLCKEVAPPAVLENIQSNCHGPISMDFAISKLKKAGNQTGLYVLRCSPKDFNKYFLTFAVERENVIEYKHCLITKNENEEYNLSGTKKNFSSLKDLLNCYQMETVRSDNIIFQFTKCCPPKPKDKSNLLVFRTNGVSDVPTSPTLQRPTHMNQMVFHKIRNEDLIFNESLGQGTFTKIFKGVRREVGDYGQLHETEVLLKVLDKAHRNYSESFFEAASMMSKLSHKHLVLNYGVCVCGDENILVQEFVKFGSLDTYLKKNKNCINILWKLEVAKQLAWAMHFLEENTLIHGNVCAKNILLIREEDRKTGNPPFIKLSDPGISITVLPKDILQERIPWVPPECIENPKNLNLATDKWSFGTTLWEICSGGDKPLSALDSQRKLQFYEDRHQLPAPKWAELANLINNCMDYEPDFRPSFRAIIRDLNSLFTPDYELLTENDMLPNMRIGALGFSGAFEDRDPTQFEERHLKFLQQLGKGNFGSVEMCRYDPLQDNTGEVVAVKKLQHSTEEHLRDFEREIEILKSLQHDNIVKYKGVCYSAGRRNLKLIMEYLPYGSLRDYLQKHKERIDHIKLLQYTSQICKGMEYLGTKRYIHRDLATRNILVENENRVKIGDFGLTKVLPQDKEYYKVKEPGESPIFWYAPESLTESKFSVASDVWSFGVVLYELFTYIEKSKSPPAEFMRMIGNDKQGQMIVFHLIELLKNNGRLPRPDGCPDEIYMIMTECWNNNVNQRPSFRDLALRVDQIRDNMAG

As usually defined, the inhibition is the change of the read-out against control, counted positive when it falls. Regarding `NC(=O)c1cc(-c2cc(N)cc3[nH]ncc23)cc2c(C#CCO)n[nH]c12`, the inhibition in test [1] is -0.4%; in test [2] it was 38.1%.

As to `NC(=O)c1cc(-c2cccc3[nH]ncc23)cc2c(C#CCCO)n[nH]c12`, the inhibition worked out at 6.7% in test [1] and 32.3% in test [2].

As for `NC(=O)c1cc(-c2cccc3[nH]ncc23)cc2c(C#CCO)n[nH]c12`, the inhibition amounted to 2.2% in test [1] and 24.9% in test [2].

In the case of `NC(=O)c1cc(-c2cc(N)cc3[nH]ncc23)cc2c(C#CCCO)n[nH]c12`, the inhibition worked out at 2.5% in test [1] and 48.1% in test [2].

Take `NC(=O)c1cc(-c2cccc3[nH]ncc23)cc2cn[nH]c12`: the inhibition in test [1] was 1.2%; in test [2], 22.5%.

For the compound `NC(=O)c1cc(-c2cc(N)cc3[nH]ncc23)cc2cn[nH]c12`, the inhibition came to 9.1% in test [1] and 15.7% in test [2].

The record behind these values is ChEMBL document CHEMBL3102787, “Linear propargylic alcohol functionality attached to the indazole-7-carboxamide as a JAK1-specific linear probe group” (Bioorg Med Chem, 2014).
